{
  "source": "paper PMC10781839",
  "about": "(European Journal of Drug Metabolism and Pharmacokinetics, 2023)",
  "key": {"[1]": {"details": "cited from earlier work"}, "CYP3A": {"system": "CYP3A", "details": "for Midazolam/1-OH-midazolam AUC2–4 h ratio: pantoprazole group"}, "CYP3A4": {"system": "CYP3A4", "details": "cited from earlier work; for CYP3A4 inhibition in vitro: HCQ metabolites"}, "CYP2D6 [2]": {"system": "CYP2D6", "details": "cited from earlier work"}, "CYP2D6 [3]": {"system": "CYP2D6", "details": "single 400 mg HCQ, short term, yohimbine probe"}, "[4]": {"details": "cited from earlier work", "remark": "listed apart in the source"}, "CYP2D6 [5]": {"system": "CYP2D6", "details": "cited from earlier work", "remark": "listed apart in the source"}, "recombinant human CYP3A4": {"biological_target": "recombinant human CYP3A4 (Homo sapiens, UniProt P08684)", "sequence (P08684 whole entry)": "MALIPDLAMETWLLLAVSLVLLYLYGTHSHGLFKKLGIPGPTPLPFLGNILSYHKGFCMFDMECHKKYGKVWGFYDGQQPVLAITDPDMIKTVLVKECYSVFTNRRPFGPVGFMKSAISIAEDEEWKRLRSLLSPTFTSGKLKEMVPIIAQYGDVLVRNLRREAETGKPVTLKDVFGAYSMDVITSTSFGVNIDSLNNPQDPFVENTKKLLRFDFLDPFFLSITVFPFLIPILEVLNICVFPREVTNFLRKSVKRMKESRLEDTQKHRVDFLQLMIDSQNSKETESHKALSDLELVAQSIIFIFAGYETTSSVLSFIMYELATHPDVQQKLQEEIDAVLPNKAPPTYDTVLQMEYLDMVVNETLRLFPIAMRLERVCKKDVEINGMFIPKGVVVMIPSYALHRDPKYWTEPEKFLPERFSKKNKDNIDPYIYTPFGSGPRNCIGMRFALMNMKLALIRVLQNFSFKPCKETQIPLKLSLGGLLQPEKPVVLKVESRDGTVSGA", "assay": "P450-Glo CYP3A4 Assay, inhibition by pantoprazole", "assay_type": "in vitro ADME", "details": "pantoprazole 100 µM, in vitro"}, "[6]": {"details": "cited from earlier work; for Peak serum concentration: pantoprazole 40 mg"}, "[7]": {"details": "all participants, after HCQ intake (± pantoprazole)"}, "[8]": {"details": "pantoprazole subgroup, HCQ plus pantoprazole"}, "[9]": {"details": "after 8-day course of 400 mg HCQ twice daily, seven healthy volunteers"}},
  "note": "Entries after “also recorded” stand apart in the source; their conditions may differ. Like-named read-outs stand apart in the source and are kept apart here.",
  "data": [
    {"smiles": "Cc1ncc2n1-c1ccc(Cl)cc1C(c1ccccc1F)=NC2", "note": "[midazolam]", "values": [
      {"measurement": "Delay of peak plasma concentration vs fasting state", "setting": "[1]; oral standard dose 1 h after a meal", "value": 0.9, "unit": "h"},
      {"measurement": "Oral bioavailability", "setting": "[1]; therapeutic or microdoses", "value": "approximately 25%"},
      {"measurement": "Increase of midazolam AUC2–4 h vs baseline", "setting": "CYP3A; [7]", "value": 25, "unit": "%"},
      {"measurement": "Change of midazolam AUC2–4 h vs baseline", "setting": "CYP3A; control subgroup, HCQ alone", "value": "no change"},
      {"measurement": "Midazolam/1-OH-midazolam AUC2–4 h ratio", "setting": "CYP3A; after hydroxychloroquine plus pantoprazole", "value": "3.60 ± 1.56"},
      {"measurement": "Midazolam/1-OH-midazolam AUC2–4 h ratio", "setting": "CYP3A; baseline", "value": "3.03 ± 1.59"},
      {"measurement": "Increase of midazolam AUC2–4 h vs baseline", "setting": "CYP3A; [8]", "value": 46, "unit": "%"}
    ]},
    {"smiles": "CC(CCCN)Nc1ccnc2cc(Cl)ccc12", "note": "(stereo not shown) [didesethylchloroquine]", "values": [
      {"measurement": "CYP3A4 inhibition in vitro", "setting": "CYP3A4", "value": "time-dependent inhibitors of CYP3A4"}
    ]},
    {"smiles": "COCCc1ccc(OCC(O)CNC(C)C)cc1", "note": "(stereo not shown) [metoprolol]", "values": [
      {"measurement": "Increase of metoprolol AUC", "setting": "CYP2D6 [2]; [9]", "value": 65, "unit": "%"},
      {"measurement": "Increase of metoprolol Cmax", "setting": "CYP2D6 [2]; [9]", "value": 72, "unit": "%"}
    ]},
    {"smiles": "CCN(CCO)CCCC(C)Nc1ccnc2cc(Cl)ccc12", "note": "(stereo not shown) [HCQ, hydroxychloroquine]", "values": [
      {"measurement": "Inhibition of CYP2D6 metabolism in vivo", "setting": "CYP2D6 [3]", "value": "not a clinically relevant CYP2D6 inhibitor; also recorded: did not inhibit"},
      {"measurement": "CYP2D6 inhibition in healthy volunteers", "setting": "CYP2D6 [2]; interaction with metoprolol and dextromethorphan", "value": "weakly inhibits CYP2D6"},
      {"measurement": "Time until steady state is reached", "setting": "[4]", "value": 4, "unit": "months"},
      {"measurement": "CYP3A4 inhibition in vitro by parent drug", "setting": "CYP3A4", "value": "did not support the hypothesis that the parent drug HCQ inhibits CYP3A4 activity"},
      {"measurement": "CYP2D6 inhibition in vitro", "setting": "CYP2D6 [5]", "value": "competitively and reversibly inhibit CYP2D6 activity, albeit only mildly"},
      {"measurement": "Inhibition of CYP3A metabolism in vivo", "setting": "CYP3A; single 400 mg HCQ, short term, midazolam probe", "value": "did not inhibit"}
    ]},
    {"smiles": "COc1ccc2c(c1)[C@]13CCCC[C@@H]1[C@H](C2)N(C)CC3", "note": "[dextromethorphan]", "values": [
      {"measurement": "Change of urinary metabolic ratio of dextromethorphan", "setting": "CYP2D6 [2]; after 8-day course of 400 mg HCQ twice daily", "value": "did not show any significant change"}
    ]},
    {"smiles": "OCc1ncc2n1-c1ccc(Cl)cc1C(c1ccccc1F)=NC2", "note": "[1-OH-midazolam, 1-hydroxy-midazolam]", "values": [
      {"measurement": "Increase of 1-OH-midazolam AUC2–4 h vs baseline", "setting": "CYP3A; [7]", "value": 17, "unit": "%"},
      {"measurement": "Increase of 1-OH-midazolam AUC2–4 h vs baseline", "setting": "CYP3A; [8]", "value": 17.5, "unit": "%"}
    ]},
    {"smiles": "CCNCCCC(C)Nc1ccnc2cc(Cl)ccc12", "note": "(stereo not shown) [desethylchloroquine]", "values": [
      {"measurement": "CYP3A4 inhibition in vitro", "setting": "CYP3A4", "value": "time-dependent inhibitors of CYP3A4"},
      {"measurement": "CYP2D6 inhibition in vitro", "setting": "CYP2D6 [5]", "value": "competitively and reversibly inhibit CYP2D6 activity, albeit only mildly"}
    ]},
    {"smiles": "CC(CCCNCCO)Nc1ccnc2cc(Cl)ccc12", "note": "(stereo not shown) [desethylhydroxychloroquine]", "values": [
      {"measurement": "CYP3A4 inhibition in vitro", "setting": "CYP3A4", "value": "time-dependent inhibitors of CYP3A4"}
    ]},
    {"smiles": "COc1ccnc(C[S+]([O-])c2nc3ccc(OC(F)F)cc3[nH]2)c1OC", "note": "(stereo not shown) [pantoprazole]", "values": [
      {"measurement": "Reduction of CYP3A activity", "setting": "recombinant human CYP3A4", "value": 75, "unit": "%"},
      {"measurement": "Time to peak concentrations after oral administration", "setting": "[6]", "value": "2 to 3", "unit": "h"},
      {"measurement": "Peak serum concentration", "setting": "[6]; converted from µg/ml", "value": 6.5, "unit": "µM"},
      {"measurement": "Peak serum concentration", "setting": "[6]", "value": 2.5, "unit": "µg/mL"},
      {"measurement": "Inhibition of CYP3A4-mediated midazolam metabolism in vitro", "setting": "CYP3A4", "value": "inhibits CYP3A4-mediated midazolam metabolism at relatively high concentrations"},
      {"measurement": "Local concentration in the gut", "setting": "CYP3A; 40 mg pantoprazole with approximately 200 ml of fluid, estimate", "value": "exceeded 500 µM"}
    ]}
  ]
}
